Measurements: ChEMBL document CHEMBL1201862, “PubChem BioAssay data set” (2004)
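In this assay, cells in 96-well plates receive the compound at five concentrations for 48 hours. Endpoints are linearly interpolated between the surrounding concentrations. The concentration for 50% growth inhibition is given as GI50.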 Activity calls are given as the source filed them. Cut-off read from the data, not from the text of the source: active = GI50 up to about 1.1 µM and inactive = higher.

Experiments:
Assay in all cases: NCI tumour cell line growth inhibition, 48 h
A549 = test system: A549
SNB-75 = test system: SNB-75
MOLT-4 = test system: MOLT-4
NCI-H23 = test system: NCI-H23
TK-10 = test system: TK-10
SN12C = test system: SN12C
UACC-257 = test system: UACC-257
PC-3 = test system: PC-3
CCRF-CEM = test system: CCRF-CEM
SF-268 = test system: SF-268
DU-145 = test system: DU-145
HOP-62 = test system: HOP-62
KM12 = test system: KM12
NCI-H460 = test system: NCI-H460
MCF7 = test system: MCF7
HCC 2998 = test system: HCC 2998
SK-MEL-2 = test system: SK-MEL-2
HCT-15 = test system: HCT-15
IGROV-1 = test system: IGROV-1
RPMI-8226 = test system: RPMI-8226
SK-MEL-5 = test system: SK-MEL-5
SF-539 = test system: SF-539
OVCAR-3 = test system: OVCAR-3
OVCAR-8 = test system: OVCAR-8
UACC-62 = test system: UACC-62
MDA-MB-435 = test system: MDA-MB-435
SNB-19 = test system: SNB-19
EKVX = test system: EKVX
OVCAR-5 = test system: OVCAR-5
SK-MEL-28 = test system: SK-MEL-28
UO-31 = test system: UO-31
SF-295 = test system: SF-295
NCI/ADR-RES = test system: NCI/ADR-RES
ACHN = test system: ACHN
COLO 205 = test system: COLO 205
M14 = test system: M14
SR = test system: SR
HCT-116 = test system: HCT-116
SW-620 = test system: SW-620
NCI-H522 = test system: NCI-H522
HT-29 = test system: HT-29
LOX IMVI = test system: LOX IMVI
T47D = test system: T47D
786-0 = test system: 786-0
Hs-578T = test system: Hs-578T

Measured: GI50

O=C1OC(OCC#CCOC2OC(=O)C(Cl)=C2Cl)C(Cl)=C1Cl (stereo not given)
inactive: A549 18.4 µM | SNB-75 12.4 µM | MOLT-4 2.43 µM | NCI-H23 15.6 µM | TK-10 9.16 µM | SN12C 17.3 µM | UACC-257 15 µM | PC-3 13.7 µM | CCRF-CEM 1.92 µM | SF-268 18.2 µM | DU-145 18.6 µM | HOP-62 13.6 µM | KM12 18.9 µM | NCI-H460 23.6 µM | MCF7 6.17 µM | HCC 2998 2.8 µM | SK-MEL-2 15.8 µM | IGROV-1 12.9 µM | RPMI-8226 3.57 µM | SK-MEL-5 18.2 µM | SF-539 16.5 µM | OVCAR-3 13.9 µM | OVCAR-8 4.31 µM | UACC-62 14.2 µM | MDA-MB-435 12.2 µM | SNB-19 16.1 µM | EKVX 20.1 µM | OVCAR-5 16.6 µM | SK-MEL-28 15.3 µM | UO-31 11.6 µM | SF-295 20.7 µM | NCI/ADR-RES 19.5 µM | ACHN 16.2 µM | COLO 205 7.41 µM | M14 11.2 µM | SR 2 µM | HCT-116 10.2 µM | SW-620 4.45 µM | NCI-H522 1.7 µM | HT-29 5.6 µM | LOX IMVI 2.65 µM | T47D 10.7 µM | 786-0 4.86 µM | Hs-578T 13.2 µM
5.85 µM: HCT-15
